Source: patent publication US20230322776A1, “NEW ARYL-PYRIDO-PYRIMIDIN-ONE DERIVATIVES” (Hoffmann-La Roche Inc., priority 2020, published 2023)

Columns and labels:
[1] = target: BRAF (Homo sapiens, UniProt P15056); test: KD BRAF (Table 1; no method described); type: binding
[2] = system: HCT116 cells (WT BRAF), ERK phospho-T202/Y204; test: HTRF assay for P-ERK determination in HCT116 cells (BRAF activation, paradox); type: cell-based; conditions: for EC50: Homo sapiens, HCT-116, HCT116 cells, 1 hour drug incubation, activation relative to maximum Dabrafenib-mediated activation (100%), top concentration 10 μM, read-out: P-ERK_HCT-116: EC50—50PCT; for Fold Selectivity HCT-116 EC50-50/ A375: ratio of P-ERK HCT-116 EC50-50PCT to P-ERK A375 IC50
Procedure, shortened: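 HCT116 (WT BRAF) cells, 8000/well in DMEM + 10% FBS, treated 1 h with compound at 0.001–10 μM in duplicate; lysed, then HTRF antibodies for ERK phospho-T202/Y204, read after overnight dark incubation at room temperature. Blank-subtracted ratio normalized to DMSO (0%) and peak dabrafenib signal (100%); sigmoidal or bell-shaped fit gives % activation.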

[3] = system: A375 cells (V600E mutated BRAF), ERK phospho-T202/Y204; test: HTRF assay for P-ERK determination in A375 cells (BRAF inhibition); type: cell-based; conditions: Homo sapiens, A-375, 1 hour drug incubation, DMSO = 100%, 10 μM Dabrafenib = 0%, top concentration 10 μM, read-out: P-ERK_A375: IC50
Procedure, shortened: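 A375 cells (V600E BRAF), 8000/well, treated 1 h with compounds at 0.001–10 μM final in duplicate; lysed and phospho-ERK (Thr202/Tyr204) read by HTRF at 665/620 nm after overnight RT incubation. Blank-subtracted ratios normalized to DMSO (100%) and 10 μM dabrafenib (0%); IC50 from sigmoidal fit.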

[4] = target: BRAF V660E (Homo sapiens, UniProt P15056, V600E); test: KD BRAF V660E (Table 1; no method described); type: binding
Chain of BRAF V660E (P15056 2-766 V600E): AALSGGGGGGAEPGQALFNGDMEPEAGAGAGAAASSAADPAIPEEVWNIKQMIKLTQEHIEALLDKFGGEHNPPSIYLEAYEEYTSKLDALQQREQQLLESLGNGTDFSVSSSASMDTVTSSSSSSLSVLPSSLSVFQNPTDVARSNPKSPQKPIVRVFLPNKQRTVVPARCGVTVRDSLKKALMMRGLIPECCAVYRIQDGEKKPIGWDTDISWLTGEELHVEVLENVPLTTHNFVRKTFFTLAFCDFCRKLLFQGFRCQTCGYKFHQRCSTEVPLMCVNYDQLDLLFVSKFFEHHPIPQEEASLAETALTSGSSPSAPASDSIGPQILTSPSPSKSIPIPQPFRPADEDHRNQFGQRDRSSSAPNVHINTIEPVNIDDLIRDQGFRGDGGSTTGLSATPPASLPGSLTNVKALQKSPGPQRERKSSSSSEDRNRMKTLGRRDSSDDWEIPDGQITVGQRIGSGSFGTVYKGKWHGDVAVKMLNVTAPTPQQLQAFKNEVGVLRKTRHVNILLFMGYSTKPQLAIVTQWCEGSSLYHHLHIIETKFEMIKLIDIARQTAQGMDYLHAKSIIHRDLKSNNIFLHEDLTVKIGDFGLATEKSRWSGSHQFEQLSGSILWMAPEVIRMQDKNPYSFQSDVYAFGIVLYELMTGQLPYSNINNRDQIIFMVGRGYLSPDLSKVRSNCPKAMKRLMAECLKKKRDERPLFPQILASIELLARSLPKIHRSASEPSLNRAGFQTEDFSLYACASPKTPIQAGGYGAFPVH

Chain of BRAF (P15056 whole entry): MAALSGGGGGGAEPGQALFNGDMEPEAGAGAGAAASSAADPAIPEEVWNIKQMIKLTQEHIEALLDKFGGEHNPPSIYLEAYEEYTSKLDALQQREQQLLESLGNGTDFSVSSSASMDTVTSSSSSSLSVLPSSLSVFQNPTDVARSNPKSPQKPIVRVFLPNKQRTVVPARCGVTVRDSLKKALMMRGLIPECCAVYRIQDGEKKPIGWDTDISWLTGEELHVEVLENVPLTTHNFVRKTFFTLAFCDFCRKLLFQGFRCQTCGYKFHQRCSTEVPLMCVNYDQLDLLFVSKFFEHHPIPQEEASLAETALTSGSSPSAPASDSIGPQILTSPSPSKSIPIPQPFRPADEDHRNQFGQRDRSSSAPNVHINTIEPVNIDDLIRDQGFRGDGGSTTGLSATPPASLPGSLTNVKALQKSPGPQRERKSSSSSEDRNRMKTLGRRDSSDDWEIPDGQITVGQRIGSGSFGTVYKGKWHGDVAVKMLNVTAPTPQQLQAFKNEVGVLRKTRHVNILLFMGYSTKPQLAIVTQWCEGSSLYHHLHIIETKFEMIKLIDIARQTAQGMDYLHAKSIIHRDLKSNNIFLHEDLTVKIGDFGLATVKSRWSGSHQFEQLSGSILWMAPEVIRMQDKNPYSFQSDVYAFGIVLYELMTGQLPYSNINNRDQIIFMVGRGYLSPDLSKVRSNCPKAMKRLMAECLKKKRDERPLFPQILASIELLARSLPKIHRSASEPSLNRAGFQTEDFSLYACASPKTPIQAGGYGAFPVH

| Kd [1] [µM] | EC50 [2] [µM] | Fold Selectivity HCT-116 EC50-50/ A375 [2] | IC50 [3] [µM] | Kd [4] [µM] | SMILES |
| --- | --- | --- | --- | --- | --- |
| 0.0236 | ≥ 10 | >51.1 | 0.196 | 0.07 | CC(=O)NCCOCCOCCNc1ncc2cc(-c3c(F)ccc(NS(=O)(=O)N4CC[C@@H](F)C4)c3F)c(=O)n(C)c2n1 [Example 32, N-[2-[2-[2-[[6-[2,6-difluoro-3-[[(3R)-3-fluoropyrrolidin-1-yl]sulfonylamino]phenyl]-8-methyl-7-oxopyrido[2,3-d]pyrimidin-2-yl]amino]ethoxy]ethoxy]ethyl]acetamide] |
| 0.0249 | ≥ 10 | >3.2 | 3.17 | 0.0601 | CC(=O)N1CCC(NC(=O)CCCNc2ncc3cc(-c4c(F)ccc(NS(=O)(=O)N5CC[C@@H](F)C5)c4F)c(=O)n(C)c3n2)CC1 [Example 33, N-(1-acetylpiperidin-4-yl)-4-[[6-[2,6-difluoro-3-[[(3R)-3-fluoropyrrolidin-1-yl]sulfonylamino]phenyl]-8-methyl-7-oxopyrido[2,3-d]pyrimidin-2-yl]amino]butanamide] |
| 0.0018 | 0.681 | 59.1 | 0.0115 | 0.004 | CC(=O)NCc1cccc(CCNc2ncc3cc(-c4c(F)ccc(NS(=O)(=O)N5CC[C@@H](F)C5)c4F)c(=O)n(C)c3n2)c1 [Example 34, N-[[3-[2-[[6-[2,6-difluoro-3-[[(3R)-3-fluoropyrrolidin-1-yl]sulfonylamino]phenyl]-8-methyl-7-oxopyrido[2,3-d]pyrimidin-2-yl]amino]ethyl]phenyl]methyl]acetamide] |
| 0.0057 | 1.49 | 40.0 | 0.0373 | 0.0221 | CC(=O)NCc1ccc(CCNc2ncc3cc(-c4c(F)ccc(NS(=O)(=O)N5CC[C@@H](F)C5)c4F)c(=O)n(C)c3n2)cc1 [Example 35, N-[[4-[2-[[6-[2,6-difluoro-3-[[(3R)-3-fluoropyrrolidin-1-yl]sulfonylamino]phenyl]-8-methyl-7-oxopyrido[2,3-d]pyrimidin-2-yl]amino]ethyl]phenyl]methyl]acetamide] |
| 0.0089 | 2.73 | 133.4 | 0.0205 | 0.0172 | CC(=O)N(C)Cc1cccc(CCNc2ncc3cc(-c4c(F)ccc(NS(=O)(=O)N5CC[C@@H](F)C5)c4F)c(=O)n(C)c3n2)c1 [Example 36, N-[[3-[2-[[6-[2,6-difluoro-3-[[(3R)-3-fluoropyrrolidin-1-yl]sulfonylamino]phenyl]-8-methyl-7-oxopyrido[2,3-d]pyrimidin-2-yl]amino]ethyl]phenyl]methyl]-N-methylacetamide] |
| 0.0022 | 0.463 | 9.4 | 0.0495 | 0.004 | CCN(C)S(=O)(=O)Nc1cccc(-c2cc3cnc(NCCC4CCN(C(C)=O)CC4)nc3n(C)c2=O)c1C#N [Example 37, 2-[2-(1-acetylpiperidin-4-yl)ethylamino]-6-[2-cyano-3-[[ethyl(methyl)sulfamoyl]amino]phenyl]-8-methyl-7-oxopyrido[2,3-d]pyrimidine] |
| 0.0134 | ≥ 10 | 1.0 | ≥ 10 | 0.0413 | Cl.NCCOCCOCCn1c(=O)c(-c2c(F)ccc(NS(=O)(=O)N3CC[C@@H](F)C3)c2F)cc2cnc(NCC3CC3)nc21 [Example 39, (3R)—N-[3-[8-[2-[2-(2-aminoethoxy)ethoxy]ethyl]-2-(cyclopropylmethylamino)-7-oxopyrido[2,3-d]pyrimidin-6-yl]-2,4-difluorophenyl]-3-fluoropyrrolidine-1-sulfonamide; hydrochloride] |
| 0.0212 | ≥ 10 | >11.8 | 0.844 | 0.0561 | CC(=O)NCCOCCOCCn1c(=O)c(-c2c(F)ccc(NS(=O)(=O)N3CC[C@@H](F)C3)c2F)cc2cnc(NCC3CC3)nc21 [Example 41, N-[2-[2-[2-[2-(cyclopropylmethylamino)-6-[2,6-difluoro-3-[[(3R)-3-fluoropyrrolidin-1-yl]sulfonylamino]phenyl]-7-oxopyrido[2,3-d]pyrimidin-8-yl]ethoxy]ethoxy]ethyl]acetamide] |
| 0.0055 | 0.404 | 3.7 | 0.108 | 0.0129 | CC(=O)N[C@H]1C[C@H](n2c(=O)c(-c3c(F)ccc(NS(=O)(=O)N4CC[C@@H](F)C4)c3F)cc3cnc(NCC4CC4)nc32)C1 [Example 43, trans-N-[3-[2-(cyclopropylmethylamino)-6-[2,6-difluoro-3-[[(3R)-3-fluoropyrrolidin-1-yl]sulfonylamino]phenyl]-7-oxopyrido[2,3-d]pyrimidin-8-yl]cyclobutyl]acetamide] |
| 1.38 | ≥ 10 | >5.3 | 1.9 | 1.75 | CCN(C)S(=O)(=O)Nc1ccc(F)c(-c2cc3cnc(NCC4CC4)nc3n(CCOCc3ccccc3)c2=O)c1F [Example 44, 2-(Cyclopropylmethylamino)-6-[3-[[ethyl(methyl)sulfamoyl]amino]-2,6-difluorophenyl]-7-oxo-8-(2-phenylmethoxyethyl)pyrido[2,3-d]pyrimidine] |
| 0.0967 | 3.53 | 55.0 | 0.0642 | 0.224 | Cn1c(=O)c(-c2c(F)ccc(NS(=O)(=O)N3CC[C@@H](F)C3)c2F)cc2cnc(NCCc3ccc(CC(=O)OC(C)(C)C)cc3)nc21 [Example 46, tert-butyl 2-[4-[2-[[6-[2,6-difluoro-3-[[(3R)-3-fluoropyrrolidin-1-yl]sulfonylamino]phenyl]-8-methyl-7-oxopyrido[2,3-d]pyrimidin-2-yl]amino]ethyl]phenyl]acetate] |
| 0.0092 | 4.47 | 116.0 | 0.0385 | 0.0232 | COC(=O)Cc1cccc(CCNc2ncc3cc(-c4c(F)ccc(NS(=O)(=O)N5CC[C@@H](F)C5)c4F)c(=O)n(C)c3n2)c1 [Example 47, methyl 2-[3-[2-[[6-[2,6-difluoro-3-[[(3R)-3-fluoropyrrolidin-1-yl]sulfonylamino]phenyl]-8-methyl-7-oxopyrido[2,3-d]pyrimidin-2-yl]amino]ethyl]phenyl]acetate] |
| 0.0266 | 5.92 | 33.7 | 0.176 | 0.0566 | Cn1c(=O)c(-c2c(F)ccc(NS(=O)(=O)N3CC[C@@H](F)C3)c2F)cc2cnc(NCCc3cnc(CC(=O)OC(C)(C)C)nc3)nc21 [Example 48, tert-butyl 2-[5-[2-[[6-[2,6-difluoro-3-[[(3R)-3-fluoropyrrolidin-1-yl]sulfonylamino]phenyl]-8-methyl-7-oxopyrido[2,3-d]pyrimidin-2-yl]amino]ethyl]pyrimidin-2-yl]acetate] |
| 0.0025 | 0.989 | 117.8 | 0.0084 | 0.0065 | CC(=O)N1Cc2ccc(CCNc3ncc4cc(-c5c(F)ccc(NS(=O)(=O)N6CC[C@@H](F)C6)c5F)c(=O)n(C)c4n3)cc2C1 [Example 49, (3R)—N-[3-[2-[2-(2-Acetyl-1,3-dihydroisoindol-5-yl)ethylamino]-8-methyl-7-oxopyrido[2,3-d]pyrimidin-6-yl]-2,4-difluorophenyl]-3-fluoropyrrolidine-1-sulfonamide] |
| 0.0045 | 1.55 | 103.6 | 0.015 | 0.0138 | CC(=O)N1CCc2ccc(CCNc3ncc4cc(-c5c(F)ccc(NS(=O)(=O)N6CC[C@@H](F)C6)c5F)c(=O)n(C)c4n3)cc2C1 [Example 50, (3R)-N-[3-[2-[2-(2-acetyl-3,4-dihydro-1H-isoquinolin-7-yl)ethylamino]-8-methyl-7-oxopyrido[2,3-d]pyrimidin-6-yl]-2,4-difluorophenyl]-3-fluoropyrrolidine-1-sulfonamide] |
